Patent US12018021B2 (UCB Biopharma SRL, priority 2018, dated 2024)
pIC50: −log10 of the molar value.

The molecules below were run against IgE-Tb / sFcεRIα-Y131A-AF488 (Homo sapiens, UniProt P01854, N146Q/N252Q) (assay: IgE-Tb / sFcεRIα-Y131A-AF488 FRET assay (protocol for examples 234 to 501)). Conditions: examples 234 to 501: compound with IgE-Tb 30 minutes before sFcεRIα-Y131A-AF488, incubated 18 hours at room temperature; read-out: Y131A FRET IC50 range.
Assay type: binding
Summary of the method: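 Read-out is the 520/490 nm emission ratio (337 nm excitation) after 18 h at room temperature, background subtracted, fitted four-parameter for IC50. Final reagents: 5 nM IgE-Tb, preincubated 30 min with compound (top typically 10 μM, 2% DMSO, 3-fold 10-point), plus 25 nM sFcεRIα-Y131A-AF488.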

Chain of IgE-Tb / sFcεRIα-Y131A-AF488 (P01854 whole entry N146Q/N252Q): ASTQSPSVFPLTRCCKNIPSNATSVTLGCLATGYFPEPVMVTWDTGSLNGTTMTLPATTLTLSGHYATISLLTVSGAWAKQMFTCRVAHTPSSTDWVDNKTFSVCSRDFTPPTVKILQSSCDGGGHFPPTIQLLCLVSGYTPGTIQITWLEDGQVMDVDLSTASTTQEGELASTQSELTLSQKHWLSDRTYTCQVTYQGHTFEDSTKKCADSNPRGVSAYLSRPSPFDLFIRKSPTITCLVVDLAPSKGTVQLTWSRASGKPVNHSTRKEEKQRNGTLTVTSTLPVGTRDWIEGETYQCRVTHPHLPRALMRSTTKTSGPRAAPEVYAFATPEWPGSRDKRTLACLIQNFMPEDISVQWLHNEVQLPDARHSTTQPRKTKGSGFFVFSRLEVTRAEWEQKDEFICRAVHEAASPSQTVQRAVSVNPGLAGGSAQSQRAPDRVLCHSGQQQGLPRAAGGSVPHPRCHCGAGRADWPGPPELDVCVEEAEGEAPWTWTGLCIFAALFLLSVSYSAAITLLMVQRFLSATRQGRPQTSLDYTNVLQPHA

| Compound | pIC50 |
| --- | --- |
| Cn1nc(Cl)cc1Nc1nncn1[C@H]1CCc2sc(NC(=O)C3CC3)c(C(=O)NCC3CC3)c2C1 [Example 305, (5S)-5-[3-[(5-chloro-2-methyl-pyrazol-3-yl)amino]-1,2,4-triazol-4-yl]-2-(cyclopropanecarbonylamino)-N-(cyclopropylmethyl)-4,5,6,7-tetrahydrobenzothiophene-3-carboxamide] | > 6.00 |
| C[C@@H]1C[C@@H]1C(=O)Nc1sc2c(c1C(=O)NCC1CC1)C[C@@H](n1cnnc1Nc1cc(OC(F)F)nn1C)CC2 [Example 306, (5S)—N-(cyclopropylmethyl)-5-[3-[[5-(difluoromethoxy)-2-methyl-pyrazol-3-yl]amino]-1,2,4-triazol-4-yl]-2-[[(1S,2R)-2-methylcyclopropanecarbonyl]amino]-4,5,6,7-tetrahydrobenzothiophene-3-carboxamide] | > 6.00 |
| Cc1nscc1Nc1nncn1[C@H]1CCc2sc(NC(=O)C3CC3)c(C(=O)NCC3CC3)c2C1 [Example 307, (5S)-2-(cyclopropanecarbonylamino)-N-(cyclopropylmethyl)-5-[3-[(3-methylisothiazol-4-yl)amino]-1,2,4-triazol-4-yl]-4,5,6,7-tetrahydrobenzothiophene-3-carboxamide] | > 6.00 |
| Cc1nocc1Nc1nncn1[C@H]1CCc2sc(NC(=O)C3CC3)c(C(=O)NCC3CC3)c2C1 [Example 308, (5S)-2-(cyclopropanecarbonylamino)-N-(cyclopropylmethyl)-5-[3-[(3-methylisoxazol-4-yl)amino]-1,2,4-triazol-4-yl]-4,5,6,7-tetrahydrobenzothiophene-3-carboxamide] | > 6.00 |
| Cn1nc(OCC2CC2)cc1Nc1nncn1[C@H]1CCc2sc(NC(=O)[C@H]3C[C@@H]3F)c(C(=O)NCC3CC3)c2C1 [Example 309, (5S)-5-[3-[[5-(cyclopropylmethoxy)-2-methyl-pyrazol-3-yl]amino]-1,2,4-triazol-4-yl]-N-(cyclopropylmethyl)-2-[[(1R,2S)-2-fluorocyclopropanecarbonyl]amino]-4,5,6,7-tetrahydrobenzothiophene-3-carboxamide] | > 6.00 |
| CCOc1cc(Nc2nncn2[C@H]2CCc3sc(NC(=O)[C@H]4C[C@@H]4F)c(C(=O)NCC4CC4)c3C2)n(C)n1 [Example 310, (5S)—N-(cyclopropylmethyl)-5-[3-[(5-ethoxy-2-methyl-pyrazol-3-yl)amino]-1,2,4-triazol-4-yl]-2-[[(1R,2S)-2-fluorocyclopropanecarbonyl]amino]-4,5,6,7-tetrahydrobenzothiophene-3-carboxamide] | > 6.00 |
| Cn1nc(C(F)(F)F)cc1Nc1nncn1[C@H]1CCc2sc(NC(=O)[C@H]3C[C@H]3F)c(C(=O)NCC3CC3)c2C1 [Example 312, (5S)—N-(cyclopropylmethyl)-2-[[(1R,2R)-2-fluorocyclopropanecarbonyl]amino]-5-[3-[[2-methyl-5-(trifluoromethyl)pyrazol-3-yl]amino]-1,2,4-triazol-4-yl]-4,5,6,7-tetrahydrobenzothiophene-3-carboxamide] | > 6.00 |
| Cn1nc(OC(F)F)cc1Nc1nncn1[C@H]1CCc2sc(NC(=O)[C@H]3C[C@@H]3F)c(C(=O)NCC3CC3)c2C1 [Example 313, (5S)—N-(cyclopropylmethyl)-5-[3-[[5-(difluoromethoxy)-2-methyl-pyrazol-3-yl]amino]-1,2,4-triazol-4-yl]-2-[[(1R,2S)-2-fluorocyclopropanecarbonyl]amino]-4,5,6,7-tetrahydrobenzothiophene-3-carboxamide] | > 6.00 |
| Cn1nc(OC(F)F)cc1Nc1nncn1[C@H]1CCc2sc(NC(=O)[C@H]3C[C@@H]3F)c(C(=O)NC[C@@H]3C[C@@H]3F)c2C1 [Example 322, (5S)-5-[3-[[5-(difluoromethoxy)-2-methylpyrazol-3-yl]amino]-1,2,4-triazol-4-yl]-2-[[(1R,2S)-2-fluorocyclopropanecarbonyl]amino]-N-[[(1S,2S)-2-fluorocyclopropyl]methyl]-4,5,6,7-tetrahydro-1-benzothiophene-3-carboxamide] | > 6.00 |
